Legend:
Format in all cases: in vivo, human
[1] = system: patients with chronic fatigue syndrome or fibromyalgia syndrome; assay: Pre- and post-ribose Visual Analog Scale assessment in chronic fatigue syndrome or fibromyalgia syndrome patients
Source text: There is a cluster of diseases of unknown etiology that share some common symptoms. Included in this cluster are chronic fatigue syndrome, fibromyalgia syndrome and statin-induced myalgia. The most prominent symptoms is pain in the muscles, accompanied by pain in connective tissue (fibromyalgia), sleep disturbance, lack of mental clarity and feelings of well-being. In addition to the patients of Example 1 and 2, who presented with statin-induced myalgia, a mixed cohort of patients having given a physician's diagnosis of chronic fatigue syndrome or fibromyalgia syndrome were given a supply of D-ribose for self administration. Each patient served as his or her control, the results being reported as pre- and post-ribose administration. Compliance was estimated by the amount of the ribose supply remaining. Those patients having administered at least one-half of the 280 grams supply were included in the following summary. A total of 41 subjects were enrolled, of whom five were considered non-compliant and excluded from these analyses. Of the remaining 36 subjects, 78% were female, average age 48 years; 58% and 85% had been previously diagnosed with fibromyalgia and/or chronic fatigue syndrome. Twenty-nine subjects (81%) took a B-complex vitamin daily. The average length of time taking ribose was 25 days. The primary outcome measure was the initial versus final visit Visual Analog Scale (VAS) score: • 1. Visual Analog (well-being) Scale of 1-10 for five questions obtained before the first and after the last dose of ribose. • (A) How is your energy? (1=near dead and 10+excellent) • (B) How is your sleep? (1=no sleep and 10=8 hours of sleep a night without waking. • (C) How is your mental clarity? (1=brain dead and 10=good clarity) • (D) How bad is your pain? (1=very severe pain and 10=pain free) • (F) How is your overall sense of well-being? (1=near dead and 10=excellent) On taking the final dose, the patient was also asked in fill in: “much better, somewhat better, no change, somewhat worse and much worse.” The patients were also asked to comments on benefits or side effects. If they felt better, about how long did it take to feel better? Since the compliance was ascertained only by the amount of ribose remaining, the patients were asked to comment in more detail on their guesstimate of doses missed.

[2] = system: patients with clinical statin-induced myalgias; assay: Placebo-controlled pilot study of ribose on muscle pain in patients with statin-induced myalgias; settings: for Severity of symptoms, Mean (sd): scale 1=mild to 5=severe
Source text: Thirty patients aged 20 to 80 years of age presently taking statins and showing clinical statin-induced myalgias were randomized in a six-week placebo-controlled study of the effect of ribose on muscle pain. Fifteen patients were given five grams of ribose twice a day to determine the improvement in clinical symptoms, using an objective patient questionnaire and physician interview. The primary symptom reported was muscle pain, but other symptoms commonly reported included fatigue, poor sleep, a decrease in mental clarity and a reduced sense of well-being. Fifteen patients presently taking statins were given five grams of glucose twice a day as a control. All patients were given a complete history and physical exam. The patient's assessment of muscle pain, soreness or cramping was graded on a scale of one to five, five being the most severe.
Exclusions: Statin-induced myopathy with elevated CPJK over twice normal • Statin-induced hepatopathy with elevated LFTs over twice normal Pregnancy • Insulin-dependant diabetes • Diseases known to be associated with myalgias, such as fibromyalgia, PMR, CTD, genetic or acquired myopathies • New drugs or supplements during the study period
Inclusions: • Patients on any FDA-approved statin at recommended doses. • Constant use of statin dose and any other drugs for at least four weeks prior to study entry
Ribose or glucose were given as a pill or powder and compliance was monitored by pill count or powder measurement on each visit, weekly during the four week study period. A questionnaire was developed to validate the study results.
The severity of symptoms were compared at each follow-up visit. Subjects were asked to rate the severity of symptoms on a scale from 1 to 5; 1=mild and 5=severe.

[3] = system: statin drug-induced rhabdomyolysis patient; assay: Patient with drug-induced rhabdomyolysis given ribose (case report)
Source text: They were started on a statin drug. Within three months they were diagnosed with rhabdomyolysis resulting in chronic renal failure and symptoms of extreme fatigue and muscle pain. The patient was placed on five grams of ribose, twice daily, after symptoms had persisted for about four months. […] They stayed on the regimen for about three months. Upon cessation of ribose administration, the fatigue and pain slowly returned, but not as severe as had been previously experienced.

[4] = individualized response, ribose n = 12
[5] = person, five grams of ribose twice daily, within one week

For `O=C[C@H](O)[C@H](O)[C@H](O)CO` [Ribose, D-ribose], which “patients experiencing at least some improvement during the study” value ([1]; 23 of the 35 patients answering the general question) is on record?
Its value is 65.7%.

And the “VAS Energy, Post- Mean (std)” value ([1]; 36 patients, post-ribose, scale 1-10, pre-ribose 3.8 (1.1), average 25 days on ribose)?
The value was 5.5 (1.5).

And the “VAS Well-being, Post- Mean (std)” value ([1]; 36 patients, post-ribose, scale 1-10, pre-ribose 4.3 (1.3))?
The value was 5.6 (1.5).

And the “VAS Sleep, Post- Mean (std)” value ([1]; 36 patients, post-ribose, scale 1-10, pre-ribose 4.8 (1.6))?
The value was 6.0 (1.9).

And the “VAS Mental Clarity, Post- Mean (std)” value ([1]; 36 patients, post-ribose, scale 1-10, pre-ribose 4.9 (1.5))?
Its value is 5.7 (1.7).

What about the “VAS Pain, Post- Mean (std)” value ([1]; 36 patients, post-ribose, scale 1=very severe pain, 10=pain free, pre-ribose 4.9 (2.3)) of the same molecule?
The value was 5.6 (2.2).

And the “patients reporting no change to somewhat worse than at the beginning of the study” value ([1]; general question at final dose)?
The value was “three”.

What about the “Severity of symptoms, Mean (sd)” value ([2]; Week 1, n = 15) of the same molecule?
Its value is 3.7 (0.8).

And the “Severity of symptoms, Mean (sd)” value ([2]; Week 2, n = 13)?
Its value is 3.9 (0.8).

What about the “Severity of symptoms, Mean (sd)” value ([2]; Week 3, n = 12) of the same molecule?
Its value is 3.7 (0.8).

What about the “Severity of symptoms, Mean (sd)” value ([2]; Week 4, n = 12) of the same molecule?
The value was 3.6 (1.0).

What about the “Severity of symptoms, Mean (sd)” value ([2]; Week 5, wash out period, n = 9) of the same molecule?
Its value is 3.4 (1.0).

And the “Severity of symptoms, Mean (sd)” value ([2]; Week 6, wash out period, n = 8)?
The value was 3.7 (0.8).

And the “severity of symptoms at baseline” value ([2]; baseline, scale 1 to 5, placebo group 3.0)?
The value was 3.7.

And the “global assessment of symptom improvement: patients classified as Improved” value ([2]; five grams ribose twice a day, 11 of 13 ribose patients, placebo 3 of 14 (21%))?
Its value is 85%.

And the “patients reporting a change in symptoms at end of test period” value ([2]; four weeks, 10 of 12 remaining ribose patients, placebo 5 of 14 (36%), p=0.02)?
The value was 83%.

What about the “patients with More than 50% improvement” value [2, 4] of the same molecule?
The value was 36%.

And the “patients with No improvement or worse” value [2, 4]?
Its value is 27%.

And the “patients with Some improvement” value [2, 4]?
The value was 73%.

And the “patients with No improvement or worse” value ([2]; individualized response, ribose n = 12, listed as ribose)?
Its value is 27%.

And the “average improvement greater than the placebo group” value ([2]; repeated measures analysis adjusted for baseline severity difference, p=0.35)?
The value was 0.10 units per week.

What about the “fatigue (patient report)” value [3, 5] of the same molecule?
Its value is “greatly reduced”.

What about the “muscle pain (patient report)” value [3, 5] of the same molecule?
Its value is “gone”.

What about the “symptoms after returning to the ribose regimen” value ([3]; ribose resumed a month after cessation, fatigue and pain had slowly returned) of the same molecule?
The value was “again experienced relief of symptoms”.

Reference: patent publication US20060135440A1, “Use of ribose to alleviate rhabdomyolysis and the side effects of statin drugs” (priority 2004, published 2006)
